In US9339522B2, “Method for regulating blood glucose level” (SINPHAR PHARMACEUTICAL CO., LTD., priority 2013, dated 2016):

What was measured:
[1] = test system: human hepatocellular liver carcinoma cell line (HepG2); assay: Carbohydrate consumption assay in HepG2 cells; format: cell-based
Experimental: A carbohydrate consumption assay was conducted by using human hepatocellular liver carcinoma cell line (HepG2, Bioresource Collection and Research Center, BCRC number: 60025). The cells were treated with 1000 μg/ml glucose, and then treated with 100 nM insulin, 50 μg/ml Cistanche tubulosa extract (CTE), 12.5 μg/ml of echinacoside, 1.25 μg/ml of acteoside, or 2.25 μg/ml of isoacteoside (i.e., an active component by an amount of what it presents in the extract). After 1 hour, the carbohydrate consumption level was determined. The results are shown in FIG. 10, wherein the data were shown as mean±standard deviation (n=3); ***P<0.001 (as compared to the control group).
To further confirm if the active components that are present in Cistanche tubulosa extract have the effect of accelerating liver cells to uptake blood sugar, a carbohydrate consumption assay as described above was conducted by using different concentrations of Cistanche tubulosa extract, echinacoside, acteoside and isoacteoside to treated the HepG2 cells. The results are shown in FIG. 11, wherein the data were shown as mean±standard deviation (n=3); **P<0.01; ***P<0.001 (as compared to the control group); #P<0.05 (as compared to the insulin group).

[2] = test system: liver cells; conditions: acteoside obtained from plantago, CN 102283854 A; cited from earlier work
[3] = test system: mice having type I diabetes or type II diabetes induced by different medicaments; conditions: mice with induced type I or type II diabetes; acteoside obtained from plantago; CN 102283854 A; cited from earlier work
[4] = Body weight and caloric intake of diabetic SD rats during 6 weeks treatment; format: in vivo, SD (Sprague-Dawley) rats; conditions: FIG. 1; measured weekly; comparison between groups; rosiglitazone 0.571 mg/kg, CTE 80, 160, 320 mg/kg oral once daily 6 weeks
Experimental: 4-week-old male SD (Sprague-Dawley) rats were fed for one week, and then randomly divided into six groups (10 rats in each group), including five experimental groups and a control group. The rats in the experimental groups were intraperitoneally injected with 230 mg/kg body weight of nicotinamide, and then intraperitoneally injected with 65 mg/kg body weight of streptozocin to induced diabetes mellitus (the DM group). The control group was intraperitoneally injected with the same volume of a citrate buffer (pH 4.5). After a week, the fasting blood glucose of the induced diabetic rats in the experimental groups were measured, to confirmed the fasting blood glucose>[…]. The rats were then fed with a 45% high fat diet (HFD) for 6 weeks. Then, using the dosage shown in Table 1, the rats were orally administered with 0.571 mg/kg body weight of rosiglitazone (a medicine for regulating blood glucose levels, which is an insulin sensitizer) (DMR group) or 80 mg/kg body weight of Cistanche tubulosa extract (CTE) (DME1 group), 160 mg/kg body weight of CTE (DME2 group), or 320 mg/kg body weight of CTE (DME4 group), once daily for 6 weeks. The rats in the control group and the DM group were administered with double distilled water once daily for 6 weeks. The body weight of the rats was measured weekly and the caloric intake was calculated. […]

[5] = test system: induced diabetic rats; assay: Determination of fasting plasma glucose concentration; format: in vivo, SD (Sprague-Dawley) rats; conditions: DMR group: rosiglitazone 0.571 mg/kg body weight oral once daily 6 weeks; DM + 45% HFD rats; mean, n = 10
Experimental: (§1) 4-week-old male SD (Sprague-Dawley) rats were fed for one week, and then randomly divided into six groups (10 rats in each group), including five experimental groups and a control group. The rats in the experimental groups were intraperitoneally injected with 230 mg/kg body weight of nicotinamide, and then intraperitoneally injected with 65 mg/kg body weight of streptozocin to induced diabetes mellitus (the DM group). The control group was intraperitoneally injected with the same volume of a citrate buffer (pH 4.5). […] The rats in the control group and the DM group were administered with double distilled water once daily for 6 weeks. The body weight of the rats was measured weekly and the caloric intake was calculated.
(§2) After the above glucose tolerance test, the rats were sacrificed, and the blood samples were taken from the celiac artery. The blood samples were centrifuged at 3000 rpm, 4° C. for 15 minutes. The supernatant was collected, which is the plasma. Other tissue of the rats was also taken out and weighed, and then stored at −80° C. for the following biochemical data analysis.

[6] = test system: induced diabetic rats; assay: Determination of total triglyceride concentration in plasma; format: in vivo, SD (Sprague-Dawley) rats; conditions: DMR group: rosiglitazone 0.571 mg/kg body weight oral once daily 6 weeks, DM + 45% HFD rats, mean, n = 10
Experimental: as §1, §2

[7] = test system: induced diabetic rats; assay: Determination of total cholesterol concentration in plasma; format: in vivo, SD (Sprague-Dawley) rats; conditions: DMR group: rosiglitazone 0.571 mg/kg body weight oral once daily 6 weeks, DM + 45% HFD rats, mean, n = 10
Experimental: as §1, §2

[8] = test system: induced diabetic rats; assay: Determination of plasma insulin concentration (ELISA); format: in vivo, SD (Sprague-Dawley) rats; conditions: DMR group: rosiglitazone 0.571 mg/kg body weight oral once daily 6 weeks, DM + 45% HFD rats, mean, n = 10
Experimental: as §1, §2

[9] = test system: induced diabetic rats; assay: Determination of plasma leptin concentration (enzyme immunoassay); format: in vivo, SD (Sprague-Dawley) rats; conditions: DMR group: rosiglitazone 0.571 mg/kg body weight oral once daily 6 weeks, DM + 45% HFD rats, mean, n = 10
Experimental: as §1, §2

[10] = test system: induced diabetic rats; assay: Homeostasis model assessment equation of insulin resistance (HOMA-IR); format: in vivo, SD (Sprague-Dawley) rats; conditions: DMR group: rosiglitazone 0.571 mg/kg body weight oral once daily 6 weeks; DM + 45% HFD rats; mean, n = 10
Experimental: 4-week-old male SD (Sprague-Dawley) rats were fed for one week, and then randomly divided into six groups (10 rats in each group), including five experimental groups and a control group. The rats in the experimental groups were intraperitoneally injected with 230 mg/kg body weight of nicotinamide, and then intraperitoneally injected with 65 mg/kg body weight of streptozocin to induced diabetes mellitus (the DM group). The control group was intraperitoneally injected with the same volume of a citrate buffer (pH 4.5). After a week, the fasting blood glucose of the induced diabetic rats in the experimental groups were measured, to confirmed the fasting blood glucose>[…]. The rats were then fed with a 45% high fat diet (HFD) for 6 weeks. […] The body weight of the rats was measured weekly and the caloric intake was calculated. […]
The homeostasis model assessment equation of insulin resistance (HOMA-IR) was calculated by the formula as follows: HOMA-IR=fasting plasma insulin concentration (mU/ml)×fasting plasma glucose concentration (mmole/L)÷22.5

[11] = test system: induced diabetic rats; assay: Liver and kidney function indicators in plasma (urea, creatinine, ALT, AST); format: in vivo, SD (Sprague-Dawley) rats; conditions: DMR group: rosiglitazone 0.571 mg/kg body weight oral once daily 6 weeks, DM + 45% HFD rats, mean, n = 10
Experimental: as §1, §2
It has been known that diabetes mellitus may cause a lot of complications.

[12] = test system: induced diabetic rats; assay: Plasma antioxidant enzymes (SOD, catalase, GPx); format: in vivo, SD (Sprague-Dawley) rats; conditions: DMR group: rosiglitazone 0.571 mg/kg body weight oral once daily 6 weeks, DM + 45% HFD rats, mean, n = 10
Experimental: as §1, §2
It has been known that both Type I diabetes mellitus and Type II diabetes mellitus may cause the decreased expression of antioxidant enzymes in the body, and thus, increases oxidative stress. In this experiment, the concentrations of superoxide dismutase (SOD) catalase, and glutathione peroxidase (GPx) in the plasma of the rats were analyzed by an SOD detection kit, a catalase detection kit, and a GPx detection kit (Eugene-Chen CO., LTD, TW), respectively, to analyze the effect of CTE on the expression levels of antioxidant enzymes.

[13] = test system: induced diabetic rats; assay: Over-oxidation of plasma lipid (plasma malondialdehyde); format: in vivo, SD (Sprague-Dawley) rats; conditions: DMR group: rosiglitazone 0.571 mg/kg body weight oral once daily 6 weeks, DM + 45% HFD rats, mean, n = 10
Experimental: as §1, §2

[14] = Weights of the liver, kidney, heart, and abdominal fat of the rats; format: in vivo, SD (Sprague-Dawley) rats; conditions: DMR group: rosiglitazone 0.571 mg/kg body weight oral once daily 6 weeks; DM + 45% HFD rats; mean, n = 10
Experimental: 4-week-old male SD (Sprague-Dawley) rats were fed for one week, and then randomly divided into six groups (10 rats in each group), including five experimental groups and a control group. The rats in the experimental groups were intraperitoneally injected with 230 mg/kg body weight of nicotinamide, and then intraperitoneally injected with 65 mg/kg body weight of streptozocin to induced diabetes mellitus (the DM group). The control group was intraperitoneally injected with the same volume of a citrate buffer (pH 4.5). After a week, the fasting blood glucose of the induced diabetic rats in the experimental groups were measured, to confirmed the fasting blood glucose>[…]. The rats were then fed with a 45% high fat diet (HFD) for 6 weeks. Then, using the dosage shown in Table 1, the rats were orally administered with 0.571 mg/kg body weight of rosiglitazone (a medicine for regulating blood glucose levels, which is an insulin sensitizer) (DMR group) or 80 mg/kg body weight of Cistanche tubulosa extract (CTE) (DME1 group), 160 mg/kg body weight of CTE (DME2 group), or 320 mg/kg body weight of CTE (DME4 group), once daily for 6 weeks. The rats in the control group and the DM group were administered with double distilled water once daily for 6 weeks. The body weight of the rats was measured weekly and the caloric intake was calculated. The results are shown in FIG. 1 (body weight) and FIG. 2 (caloric intake).
In this experiment, the weights of the liver, kidney, heart, and abdominal fat of the rats treated with different conditions for 6 weeks were determined.

[15] = FIG. 11, 5 μg/ml and 50 μg/ml, HepG2, compared to the control group, dose dependence
[16] = FIG. 11, very low concentration, such as 5 μg/ml, HepG2

C[C@@H]1O[C@@H](O[C@@H]2[C@@H](O)[C@H](OCCc3ccc(O)c(O)c3)O[C@H](COC(=O)/C=C/c3ccc(O)c(O)c3)[C@H]2O)[C@H](O)[C@H](O)[C@H]1O [isoacteoside]
Carbohydrate consumption level ([1]; FIG. 10, 2.25 μg/ml, HepG2, 1000 μg/ml glucose, after 1 hour, compared to the control group): effectively increase
Carbohydrate consumption level [1, 15]: effectively increase
Carbohydrate consumption level [1, 16]: increase

C[C@@H]1O[C@@H](O[C@@H]2[C@@H](O)[C@H](OCCc3ccc(O)c(O)c3)O[C@H](CO)[C@H]2OC(=O)/C=C/c2ccc(O)c(O)c2)[C@H](O)[C@H](O)[C@H]1O [acteoside]
Carbohydrate consumption level ([1]; FIG. 10, 1.25 μg/ml, HepG2, 1000 μg/ml glucose, after 1 hour, compared to the control group): not obvious
Carbohydrate consumption level [1, 15]: effectively increase
Consumption of glucose [2]: effective in promoting the consumption of glucose
Fasting blood glucose level [3]: decrease
Serum insulin level [3]: enhancing

CN(CCOc1ccc(CC2SC(=O)NC2=O)cc1)c1ccccn1 (stereo not shown) [rosiglitazone]
Body weight [4]: no significant difference
Fasting blood glucose [5]: 134.37 mg/dL
The total triglyceride [6]: 62.77 mg/dL
Total cholesterol [7]: 106.90 mg/dL
Insulin [8]: 3.57 ng/mL
Leptin [9]: 6.38 ng/mL
HOMA-IR [10]: 2.37 μg · mmole/L^2
ALT [11]: 29.88 U/L
AST [11]: 38.24 U/L
AST/ALT [11]: 1.34
Creatinine [11]: 1.19 mg/dL
Urea [11]: 19.14 mg/dL
Catalase [12]: 60.05 U/mg protein
Glutathione peroxidase [12]: 811.08 U/mg protein
Superoxide dismutase [12]: 0.65 U/mg protein
Malondialdehyde [13]: 13.38 nM/ml
Abdominal fat weight, percentage compared to body weight [14]: 2.49%
Heart weight, percentage compared to body weight [14]: 0.34%
Kidney weight, percentage compared to body weight [14]: 0.34%
Liver weight, percentage compared to body weight [14]: 3.21%

C[C@@H]1O[C@@H](O[C@@H]2[C@@H](O)[C@H](OCCc3ccc(O)c(O)c3)O[C@H](CO[C@@H]3O[C@H](CO)[C@@H](O)[C@H](O)[C@H]3O)[C@H]2OC(=O)/C=C/c2ccc(O)c(O)c2)[C@H](O)[C@H](O)[C@H]1O [echinacoside]
Carbohydrate consumption level ([1]; FIG. 10, 12.5 μg/ml, HepG2, 1000 μg/ml glucose, after 1 hour, compared to the control group): effectively increase
Carbohydrate consumption level [1, 15]: effectively increase
Carbohydrate consumption level [1, 16]: increase
